According to patent US8563601B2, “Method of managing broncho-constrictive condition” (Indus Biotech Private Limited, priority 2010, dated 2013):

Assays:
[1] = system: ovalbumin-induced broncho-constriction in sensitized guinea pigs; assay: In-vivo pulmonary antigen-induced sensitization study (intratracheal pressure); set-up: species or system Male Duncan Hartley derived guinea pigs; conditions: about 30 mg/kg
Protocol: Prophylactic activity of instant composition against antigen-induced broncho-constriction is tested in sensitized guinea pigs. […] One hour after pretreatment, the guinea pigs are sensitized with intraperitoneal injection of ovalbumin (0.5 μg). A cocktail of Indomethacin (about 10 mg/kg), Mepyramine (about 2 mg/kg) and Propanolol (about 100 mg/kg) is injected about 10 mins before sensitization in order to block other mediators of broncho-blockade. Sensitized animals are anesthetized and artificially ventilated.

[2] = Heart rate and blood pressure in the pulmonary antigen-induced sensitization study; type: in vivo, Male Duncan Hartley derived guinea pigs; conditions: guinea pigs
Protocol: Prophylactic activity of instant composition against antigen-induced broncho-constriction is tested in sensitized guinea pigs. Male Duncan Hartley derived guinea pigs (400±50 g) are pretreated with instant composition at dose of about 100 mg/kg of body weight of the subject, administered orally. One hour after pretreatment, the guinea pigs are sensitized with intraperitoneal injection of ovalbumin (0.5 μg). A cocktail of Indomethacin (about 10 mg/kg), Mepyramine (about 2 mg/kg) and Propanolol (about 100 mg/kg) is injected about 10 mins before sensitization in order to block other mediators of broncho-blockade. Sensitized animals are anesthetized and artificially ventilated. […]

For O=C1CCN(c2ccccc2)N1 [Phenidone], the “ΔITP Before Ovalbumin” value ([1]; n = 5) was 0 cm H2O, the “ΔITP After Ovalbumin” value ([1]; n = 5, vehicle control 29.3 ± 2.2) was 2.3 ± 0.3 cm H2O and the “effect on blood pressure” value ([2]; 5 minutes after administration) was “reduced blood pressure”. The “Blood Pressure” value ([2]; measured 5 mins after administration, n = 5, vehicle control 49.4 ± 4.0) was 34.4 ± 1.9 mm Hg and the “Heart Rate” value ([2]; measured 5 mins after administration, n = 5, vehicle control 171.2 ± 3.4) was 162.4 ± 4.7 beats/minute.
